Data from patent publication US11931347B2, “Method of screening for agents for differentiating stem cells” (MINERVA BIOTECHNOLOGIES CORPORATION, priority 2015, dated 2024).

What was measured:
[1] = test system: human naïve state stem cells; test: stem cell drug screening assay on naïve state stem cells; type: cell-based; details: 6 uM, 3 days
Experimental: The stem cell screening assay, was performed in both the presence and absence of the stem cell growth factors: NME7AB for growing naïve stem cells or FGF for growing primed stem cells. If the cognate growth factor was present, then the biological or small molecule would have to compete away the growth factor to get an effect. Therefore, we expected to see more of an effect when the growth factor, FGF for primed stem cells or NME7AB or NME1 dimers for naïve stem cells, was absent. The effect of the compounds on stem cells was visually determined and compounds were ranked 0-4, with 4 being the greatest effect and 0 being no observable effect. The major effect that was observed was a change from pluripotent stem cell morphology, which is a cobblestone pattern of small round cells with a large nucleus to cytoplasm ratio, to that of differentiating stem cells, which are elongated, large and flattened cells with a smaller nucleus to cytoplasm ratio. […] The compounds were added to a final concentration of 6 uM to either naïve state stem cells or primed state stem cells. In this particular case, the naïve state stem cells were maintained in a naïve state by culturing in a media containing NME7AB or NME1 dimers. However, other methods such as 2i and 5i (Silva et al., 2008, Nichols and Smith, 2009, Theunissen et al., 2014)] can be used to maintain stem cells in a more naïve state. In this case primed state stem cells were cultured in bFGF over a layer of MEFs, although it is known that any bFGF containing media will maintain stem cells in the primed state.
Stem cells whether embryonic or induced pluripotent stem (iPS) cells were cultured in a minimal, serum-free media that contained human recombinant NME7AB at a concentration of 2-32 nM wherein 4-8 nM is preferred and 4 nM is more preferred. To facilitate surface attachment, cell culture plates were coated with an anti-MUC1* monoclonal antibody called MN-C3 or C3 or MN-C8 at a concentration of 2-100 ug/mL coating solution, wherein 3-50 ug/mL is preferred and 6-12.5 ug/mL is more preferred. In these experiments, 12.5 ug/mL of MN-C3 was used. Antibody coated plates were incubated at 4 degrees C. overnight prior to plating stem cells. A Rho kinase I inhibitor was added to enhance surface attachment. In some cases, NME7AB was substituted with human recombinant NME1 dimers which also induce stem cells to revert to a naïve-like state.
Human naïve state and primed stem cells were cultured in parallel for at least 5 passages to guarantee normal differentiation-free growth. The stem cells were plated in 12-well cell culture plates with 50,000 cells per well. Cells were cultured in their respective media, either bFGF media or NME7AB media for 24 hours. Media was then removed and replaced with media devoid of bFGF or NME7AB, when indicated. Agents being tested for their ability to induce differentiation of naïve stem cells were added to the media at the concentrations indicated. After 72 hours, photographs were taken see FIGS. 1-10.
Human naïve state and primed stem cells were cultured in parallel for at least 5 passages to guarantee normal differentiation-free growth. The stem cells were plated in 12-well cell culture plates with 50,000 cells per well. Cells were cultured in their respective media, either bFGF media or NME7AB media for 24 hours. Media was then removed and replaced with media devoid of bFGF or NME7AB. […] Media was changed after 48 hours and replaced with fresh media containing the BRD4 inhibitors. After 4 days the experiment was stopped. Photographs were taken and cell pellets collected for further analysis, see FIGS. 11-16.

[2] = test system: NME7AB-induced transition of regular cancer cells to metastatic cancer cells; test: transition of regular cancer cells to metastatic cancer cells (previously shown); type: cell-based
[3] = test system: MUC1* positive cancer cells; test: cancer cell growth in vitro (previously shown); type: cell-based
[4] = test system: E-cadherin, fibronectin, vimentin and NF1 expression in naïve stem cells; test: RT-PCR of differentiation markers in treated naïve stem cells; type: cell-based, human
Experimental: FIG. 161 is a graph of RT-PCR measurement of naïve stem cells that have been treated with compounds of the invention. The genes whose expression is measured are E-cadherin, which goes […] as cells undergo epithelial to mesenchymal transition, fibronectin and vimentin, which both increase as stem cells initiate differentiation and NF1, which is one of the first genes to increase when stem cells begin to differentiate down the neural lineage. […] E-cadherin is the opposite; it […] as cells become cancerous. […] Expression of metastatic marker E-cadherin was reduced and expression of differentiation markers fibronectin, vimentin and NF1 were increased (FIG. 162-FIG. 163). Novel compounds of the invention are highly specific. […] Although we discovered that NME1 dimers, NME7AB and NME7-X1 are all activating ligands of the MUC1* growth factor receptor and they bind to its extracellular domain, we have developed ample evidence that both NME7AB and NME7-X1 have other binding partners and can exert oncogenic effects, independent of MUC1*.

[5] = test system: OV-90 MUC1* negative ovarian cancer cells; test: cancer cell proliferation assay (Calcein); type: cell-based; details: 96 hours (FIG. 114)
Experimental: (§1) Small molecule inhibition of cancer cell proliferation studies were also performed on several cancer sub-types. […] The small molecules of the invention had the most robust effect on T47D breast cancer cells, which are highly positive for MUC1* growth factor receptor, and its activating ligands NME7AB and NME7-X1. […] For the cancer cell proliferation experiment cancer cells were plated at constant densities (6000 cells/well) into a 96-well White-walled/Clear-bottom Tissue Culture Treated plate (Corning Incorporated, Big Flats, N.Y.). Small molecule analogs are added at T=24 hours in media with 2% FBS. Following the addition of the small molecules, the cells remain untouched for 120 hours with visual confirmations/inspections at 24, 48, 72 and 96 hours post plating. At the 120 hour mark a calcein fluorescence assay (Thermo Fisher Scientific, Waltham, Mass.) is performed on the plate. Calcein fluorescence (final concentration 0.5 uM) is used to assess cell viability. Cancer cell fluorescence is measured in a TECAN SAFIRE^2 spectrophotometer plate reader. The plate is then imaged using an Olympus IX71 fluorescence imaging microscope and montage of the resulting images are assembled using ImageJ.

T47D breast cancer cells = test: cancer cell proliferation assay (Calcein live cell stain); type: cell-based, human; details: live cell Calcein stain, 96 hours (FIG. 113)
Experimental: These analogs of MN1194 and 1186 were also tested in a cell growth assay (FIGS. 107A1-107H6 and FIG. 108A1-108H6, respectively). In this experiment, both parent compound and analogs thereof were added to normal cell culture media to final concentrations of 40 uM, 20 uM, 10 uM, 5 uM or 2.5 uM. For comparison, previously known cancer cell migration inhibitors SU11274 and MN1204 were included in the same experiment. […] Relative cell proliferation is quantified on a standard plate reader that reads the fluorescence of the Calcein that is taken up by live cells.
Small molecule inhibition of cancer cell proliferation studies were also performed on several cancer sub-types. […] The small molecules of the invention had the most robust effect on T47D breast cancer cells, which are highly positive for MUC1* growth factor receptor, and its activating ligands NME7AB and NME7-X1.
For the cancer cell proliferation experiment cancer cells were plated at constant densities (6000 cells/well) into a 96-well White-walled/Clear-bottom Tissue Culture Treated plate (Corning Incorporated, Big Flats, N.Y.). Small molecule analogs are added at T=24 hours in media with 2% FBS. Following the addition of the small molecules, the cells remain untouched for 120 hours with visual confirmations/inspections at 24, 48, 72 and 96 hours post plating. At the 120 hour mark a calcein fluorescence assay (Thermo Fisher Scientific, Waltham, Mass.) is performed on the plate. Calcein fluorescence (final concentration 0.5 uM) is used to assess cell viability. Cancer cell fluorescence is measured in a TECAN SAFIRE^2 spectrophotometer plate reader. The plate is then imaged using an Olympus IX71 fluorescence imaging microscope and montage of the resulting images are assembled using ImageJ.

[6] = test system: SK-OV-3 MUC1* positive ovarian cancer cells; test: cancer cell proliferation assay (Calcein); type: cell-based; details: 96 hours (FIG. 112)
Experimental: as §1, with “[…] […]” for “Following the addition of the small molecules, the cells remain untouched for 120 hours with visual confirmations/inspections at 24, 48, 72 and 96 hours post plating. At the 120 hour mark a calcein fluorescence assay (Thermo Fisher Scientific, Waltham, Mass.) is performed on the plate.”

FLR peptide: synthetic peptide corresponding to the extracellular domain of MUC1*, PSMGFR, SEQ ID NO:3 (GTINVHDVETQFNQYKTEAASRYNLTISDVSVSDVPFPFSAQSGA; the extracellular domain of Native Primary Sequence of the MUC1 Growth Factor Receptor (nat-PSMGFR - an example of “PSMGFR”))
effect on naïve stem cell pluripotency, growth or differentiation (visually determined) [1]: induced differentiation | inhibition of transition of regular cancer cells to metastatic cancer cells [2]: inhibit the transition of regular cancer cells to metastatic cancer cells

COC(=O)c1ccc(C2c3[nH]c4ccccc4c3CCN2C(=O)c2cccc(Cl)c2)cc1 (stereo not drawn) [MN0642]
effect on naïve stem cell pluripotency, growth or differentiation (visually determined) [1]: induced differentiation | inhibition of cancer cell growth in vitro [3]: inhibit the growth of cancer cells in vitro

CC(C)C1c2[nH]c3ccccc3c2CCN1C(=O)CCCCNC(=O)OC(C)(C)C (stereo not drawn) [MN1235]
up-regulation of markers of differentiation in naïve stem cells (RT-PCR) [4]: failed to induce differentiation

Cc1[nH]c(/C=C2\C(=O)Nc3ccc(S(=O)(=O)N(C)c4cccc(Cl)c4)cc32)c(C)c1C(=O)N1CCN(C)CC1 [SU11274]
up-regulation of markers of differentiation in naïve stem cells (RT-PCR) [4]: did not cause up-regulation of markers of differentiation | effect on growth of OV-90 cells [5]: neither the compounds of the invention nor JQ1 or SU11274 had any apparent effect | inhibition of growth of T47D cells (T47D breast cancer cells): inhibited growth | effect on growth of SK-OV-3 cells [6]: no effect
